Source: patent US8987285B2, “Pharmaceutical compositions, dosage forms and new forms of the compound of formula (I), and methods of use thereof” (Portola Pharmaceuticals, Inc., priority 2010, dated 2015)
Several values for one entry are separate records, joined by “and”; a condition that tells them apart may be missing. Equal values may be shown once.

Legend:
[1] = Saturation solubility, shake-flask with UV quantification; assay type: physicochemical; conditions: for final pH measured of the supernatant / Saturation solubility: listed as The compound of formula (I)
Protocol: The FaSSIF and FeSSIF solutions were prepared using Phares SIF powder according to the formulation instructions and the SGF solution was prepared using the guidelines provided. […] The pH and temperature of the supernatant were measured on a SiriusT3 instrument.

[2] = Wettability: contact angle measurement with water on pressed powder; assay type: physicochemical; conditions: for surface hydrophobilicity from contact angle: critical angle around 50° (>50° hydrophob <50° hydrophil); for Contact angle: water, in ° (unit assumed)
Protocol: Contact angel instrument: EasyDrop DSA15E (Krüss, Hamburg, Germany)
Syringe: NE44, diameter of needle 0.5 mm (Krüss, Hamburg, Germany)
The powder was pressed (approx 50 mg powder, 3 tons, 2 min) in tablets and analyzed by contact angle measurement. The angel between the solid and the liquid is measured after 0 and up to 60 seconds using water.
All determinations used the above method and the limit for the standards measurements are well within the given limits.

[3] = Super-saturation measurement (CheqSol): intrinsic and kinetic solubility; assay type: physicochemical; conditions: for ratio super saturation: kinetic solubility divided by intrinsic solubility
Description: Anal. Chem. 2005, 77(4), 983-990; 2—Box, K J. Völgyi, G. Baka, E. Stuart, M. Takács-Novák, K. Corner, J E A. Equilibrium vs. kinetic measurements of aqueous solubility, and the ability of compounds to supersaturate in solution—a validation study. J. Pharm. Sci. 2006, 95, 1298-1307; 3—Sköld, C. Winiwarter, S. Johan Wernevik, J. Bergström, F. Engström, L. Allen, R. Box, K. Corner, J. Mole, J. Hallberg, A. Lennernäs, H. Lundstedt, T. Ungell, A-L. Karlén, A. Presentation of a Structurally Diverse and Commercially Available Drug Data Set for Correlation and Benchmarking Studies. J. Med. Chem. 2006, 49(23), 6660-6671;
. Med. Chem.; 2007, 50 (5), 979-983; 5—Llinás, A. Box, K J. Burley, J C. Glen, R C. Goodman, J M. J. A new method for the reproducible generation of polymorphs: two forms of Sulindac with very different solubilities. […] 6—Box K et al, Using Measured pKa, Log P and Solubility to Investigate Supersaturation and Predict BCS Class, Current Drug Metabolism, 2008, 9, 869-878]
1—kinetic solubility is the concentration of a compound in solution at the time when an induced precipitate first appears
2—equilibrium solubility (also called thermodynamic solubility) is the concentration of compound in a saturated solution when excess solid is present, and solution and solid are at equilibrium
3—intrinsic solubility [Hörter, D.; Dressman, J. B. Adv. Drug Deliv. Rev., 1997, 25, 3-14] is the equilibrium solubility of the free acid or base form of an ionisable compound at a pH where it is fully un-ionized
The super-saturation ratio is calculated as the ratio of kinetic solubility divided by the Intrinsic Solubility.

[4] = Solubility-excipient screening (Sirius CheqSol, 0.15 M aqueous KCl); assay type: physicochemical; conditions: drug:excipient 1:1 by weight, Form A titrated from pH 12 with 0.5 M HCl
Protocol: In all experiments, the compound of formula (II) and excipient were present at a 1:1 weight ratio. For each excipient, Form A of the potassium salt was titrated at an initial concentration of ˜1 mg/ml from pH 12 to low pH with 0.5 M HCl. A UV-turbidity probe was used to detect the presence of sample precipitate and all experiments were carried out according to standard CheqSol procedure.

[5] = Comparison of pharmacokinetic effects (AUC, bioavailability) in human studies for polymorphic form B, A and D; assay type: in vivo; conditions: human, plasma, oral, 150 mg, polymorphs of the potassium salt
Protocol: Comparison of pharmacokinetic effects in human studies for polymorphic form B, A and D of the potassium salt of elinogrel.
Therefore the polymorphic form does have a strong impact on the bioavailability of the drug.
The bioavailability is measured in a human study according to FDA guidelines for conducting bioavailability studies. The area under the curve (AUC) of elinogrel potassium salt polymorph.

[6] = cited from earlier work

For CNc1cc2[nH]c(=O)n(-c3ccc(NC(=O)[N-]S(=O)(=O)c4ccc(Cl)s4)cc3)c(=O)c2cc1F.[K+] [Form A], the “final pH measured of the supernatant” value ([1]; FaSSIF pH 6.5-1w, form A) was 6.93, the Saturation solubility ([1]; FeSSIF pH 5.0-1w, mean N = 2, form A) was 2.76 µg/mL and the “final pH measured of the supernatant” value ([1]; FeSSIF pH 5.0-1w, form A) was 5.15. For the same molecule, the Saturation solubility ([1]; Na Phosphate pH 6.8, mean N = 2, form A) was 20.25 µg/mL, the “final pH measured of the supernatant” value ([1]; Na Phosphate pH 6.8, form A) was 6.94 and the Saturation solubility ([1]; Na-Acetate pH 4.5, mean N = 2, form A) was 0.48 µg/mL. The “final pH measured of the supernatant” value ([1]; Na-Acetate pH 4.5, form A) was 4.81, the Saturation solubility ([1]; SGF pH 2.1, mean N = 2, form A) was 2.24 µg/mL and the “final pH measured of the supernatant” value ([1]; SGF pH 2.1, form A) was 4.74. The solubility at 72 h ([1]; pH 6.5, fassif, thermodynamic from solid, FaSSIF pH 6.5-1w, mean N = 2) was 107 µg/mL, the “surface hydrophobilicity from contact angle” value ([2]; listed as polymorph A) was “hydrophob” and the Contact angle ([2]; 0 sec, listed as A) was 78.8. The Contact angle ([2]; 30 sec, listed as A) was 53.3, the Contact angle ([2]; 60 sec, listed as A) was 51.0 and the solubility kinetic ([3]; kinetic from dmso stock, CheqSol) was 6.57 µg/mL. The ratio super saturation ([3]; listed as K-salt-Form A) was 412, the solubility ([3]; thermodynamic from solid, CheqSol) was 0.0159 µg/mL and the “pH first precipitation occurs” value [4] was 5.3. For the same molecule, the Kinetic solubility ([4]; ~1 mg/ml) was 12.57 µmol/L.

In the case of CNc1cc2[nH]c(=O)n(-c3ccc(NC(=O)[N-]S(=O)(=O)c4ccc(Cl)s4)cc3)c(=O)c2cc1F.[K+] [Form B], the Saturation solubility ([1]; FaSSIF pH 6.5-1w, mean N = 2, form B) is reported as 132.50 µg/mL, the “final pH measured of the supernatant” value ([1]; FaSSIF pH 6.5-1w, form B) is reported as 6.97 and the Saturation solubility ([1]; FeSSIF pH 5.0-1w, mean N = 2, form B) is reported as 2.49 µg/mL. For the same molecule, the “final pH measured of the supernatant” value ([1]; FeSSIF pH 5.0-1w, form B) was 5.16, the Saturation solubility ([1]; Na Phosphate pH 6.8, mean N = 2, form B) was 25.95 µg/mL and the “final pH measured of the supernatant” value ([1]; Na Phosphate pH 6.8, form B) was 7.02. The Saturation solubility ([1]; Na-Acetate pH 4.5, mean N = 2, form B) was 0.40 µg/mL, the “final pH measured of the supernatant” value ([1]; Na-Acetate pH 4.5, form B) was 4.81 and the Saturation solubility ([1]; SGF pH 2.1, mean N = 2, form B) was 19.14 µg/mL. The “final pH measured of the supernatant” value ([1]; SGF pH 2.1, form B) was 5.05, the “surface hydrophobilicity from contact angle” value ([2]; listed as polymorph B) was “hydrophob” and the Contact angle ([2]; 0 sec, listed as B) was 79.7 and 72.4. For the same molecule, the Contact angle ([2]; 30 sec, listed as B) was 55.2 and 54.6, the Contact angle ([2]; 60 sec, listed as B) was 52.8 and 53.5 and the ratio super saturation ([3]; listed as K-salt-Form B) was 363. The ratio super saturation ([3]; listed as polymorph B of the compound of formula (I)) was 363 and the AUC [5] was 27600 ng·h/mL.

For NCCCC[C@H](N)C(=O)O [Lysine], the “Aqueous Solubility” value [6] is given as “free soluble”.
